The values below come from ChEMBL document CHEMBL3804815, “Aloperine and Its Derivatives as a New Class of HIV-1 Entry Inhibitors” (ACS Med Chem Lett, 2016).

pEC50: −log10 of the molar value.

The nature of series [1]: Cytotoxicity against human MT4 cells assessed as reduction in cell viability after 3 days by CellTiter-Glo luminescent assay. In kind it is cell-based. Background: ATP-based viability assays read luminescence as a measure of living cells.
Series [2] relates to Human immunodeficiency virus 1. As to the kind of experiment: Antiviral activity against HIV1 NL4-3 infected in human MT4 cells assessed as reduction in viral replication measured on day 3 post infection by Nano-Glo luciferase reporter gene assay. In kind it is functional, organism-based. The settings on record: Human immunodeficiency virus 1, NL4-3, MT4, 72 h.

In the case of `O=C(NCCCCCN1CCCC2=C[C@H]3C[C@H](CN4CCCC[C@H]34)[C@@H]21)c1ccc(OC(F)(F)F)cc1`, the CC50 (usually the concentration at which the toxic effect on the cells reaches its halfway point) at 72 h in series [1] was determined as 12.9 µM. Moreover, in series [2], the pEC50 (as a rule, the EC50 on a negative log10 scale, so that one unit is a factor of ten) was 6.01.

Turning to `NCCCCCCN1CCCC2=C[C@H]3C[C@H](CN4CCCC[C@H]34)[C@@H]21`, in series [1], the cytotoxic concentration (CC50) at 72 h is > 60.4 µM. In series [2], the pEC50 is < 5.00.

On to `O=C(Cc1ccc(OC(F)(F)F)cc1)NCCCN1CCCC2=C[C@H]3C[C@H](CN4CCCC[C@H]34)[C@@H]21`, for which the CC50 at 72 h in series [1] was > 40.7 µM. Also, in series [2], the pEC50 was 5.11.

Regarding `O=C(NCCCCN1CCCC2=C[C@H]3C[C@H](CN4CCCC[C@H]34)[C@@H]21)c1ccc(OC(F)(F)F)cc1F`, the CC50 at 72 h in series [1] is > 39.3 µM. Besides, the pEC50 in series [2] is 5.50.

`O=C(NCCCCN1CCCC2=C[C@H]3C[C@H](CN4CCCC[C@H]34)[C@@H]21)c1ccc(F)cc1`: in series [1], the CC50 at 72 h is > 47.1 µM. For the same compound, the pEC50 in series [2] is < 5.00.

Regarding `O=C(/C=C/c1ccc(OC(F)(F)F)cc1)NCCCCCN1CCCC2=C[C@H]3C[C@H](CN4CCCC[C@H]34)[C@@H]21`, in series [1], the 50% cytotoxic concentration (CC50) at 72 h turned out to be 6.36 µM. Also, in series [2], the pEC50 was 5.62.

As for `C1=C2CCCN(CCCCCNCc3ccccc3)[C@H]2[C@@H]2C[C@H]1[C@H]1CCCCN1C2`, the CC50 at 72 h in series [1] turned out to be 25.1 µM. Moreover, in series [2], the pEC50 is 6.08.

Take `O=C(Cc1ccc(OC(F)(F)F)cc1)NCCN1CCCC2=C[C@H]3C[C@H](CN4CCCC[C@H]34)[C@@H]21`: the CC50 at 72 h in series [1] is > 41.9 µM. Besides, the pEC50 in series [2] is < 5.00.

For the compound `CN1CCCC2=C[C@H]3C[C@H](CN4CCCC[C@H]34)[C@@H]21`, in series [1], the CC50 at 72 h was > 81.3 µM. Moreover, in series [2], the pEC50 is < 5.00.

Regarding `C1CN[C@@H]2C(C1)C[C@H]1C[C@@H]2CN2CCCC[C@H]12` (stereo partly drawn), the CC50 at 72 h in series [1] was > 85.5 µM. Besides, the pEC50 in series [2] is < 5.00.

Take `C1=C2CCCN(CCCCNCc3ccccc3)[C@H]2[C@@H]2C[C@H]1[C@H]1CCCCN1C2`: the CC50 at 72 h in series [1] turned out to be 28.6 µM. Besides, the pEC50 in series [2] is 6.02.

As to `COc1ccc(C(=O)NCCCCN2CCCC3=C[C@H]4C[C@H](CN5CCCC[C@H]45)[C@@H]32)cc1`, the CC50 at 72 h in series [1] is > 45.8 µM. In addition, in series [2], the pEC50 was 5.09.

As to `O=C(NCCCCN1CCCC2=C[C@H]3C[C@H](CN4CCCC[C@H]34)[C@@H]21)c1ccccc1`, the CC50 at 72 h in series [1] is > 49.1 µM. In addition, in series [2], the pEC50 is < 5.00.

Take `O=C(NCCCCN1CCCC2=C[C@H]3C[C@H](CN4CCCC[C@H]34)[C@@H]21)c1ccc(C(F)(F)F)cc1`: the CC50 at 72 h in series [1] was > 42.1 µM. Moreover, the pEC50 in series [2] was 6.16.

For the compound `NCCN1CCCC2=C[C@H]3C[C@H](CN4CCCC[C@H]34)[C@@H]21`, the CC50 at 72 h in series [1] is > 73 µM. Also, the pEC50 in series [2] is < 5.00.

`O=C(/C=C/c1ccc2c(c1)OCO2)NCCCN1CCCC2=C[C@H]3C[C@H](CN4CCCC[C@H]34)[C@@H]21`: the CC50 at 72 h in series [1] was > 43.2 µM. The pEC50 in series [2] is 5.10.

Turning to `NCCCCN1CCCC2=C[C@H]3C[C@H](CN4CCCC[C@H]34)[C@@H]21`, in series [1], the CC50 at 72 h was > 69.2 µM. Moreover, the pEC50 in series [2] was 5.10.

As to `O=C(Cc1ccc(OC(F)(F)F)cc1)NCCCCCN1CCCC2=C[C@H]3C[C@H](CN4CCCC[C@H]34)[C@@H]21`, the CC50 at 72 h in series [1] was 17.5 µM. The pEC50 in series [2] was 5.38.

Regarding `O=C(/C=C/c1ccc2c(c1)OCO2)NCCCCN1CCCC2=C[C@H]3C[C@H](CN4CCCC[C@H]34)[C@@H]21`, in series [1], the CC50 at 72 h was > 41.9 µM. In series [2], the pEC50 is 5.50.

For `O=C(NCCCN1CCCC2=C[C@H]3C[C@H](CN4CCCC[C@H]34)[C@@H]21)c1ccc(OC(F)(F)F)cc1`, the CC50 at 72 h in series [1] is > 41.9 µM. For the same compound, in series [2], the pEC50 was < 5.00.

On to `O=C(NCCCCN1CCCC2=C[C@H]3C[C@H](CN4CCCC[C@H]34)[C@@H]21)c1cccc(OC(F)(F)F)c1`, for which, in series [1], the CC50 at 72 h was > 40.7 µM. Moreover, in series [2], the pEC50 was 5.41.

Consider `O=C(NCCCCCCN1CCCC2=C[C@H]3C[C@H](CN4CCCC[C@H]34)[C@@H]21)c1ccc(OC(F)(F)F)cc1`, for which, in series [1], the CC50 at 72 h came to 18.5 µM. The pEC50 in series [2] is 5.26.

Consider `NCCCCCN1CCCC2=C[C@H]3C[C@H](CN4CCCC[C@H]34)[C@@H]21`, for which, in series [1], the CC50 at 72 h is > 63.1 µM. For the same compound, the pEC50 in series [2] is 5.27.

For `O=C(/C=C/c1ccc2c(c1)OCO2)NCCN1CCCC2=C[C@H]3C[C@H](CN4CCCC[C@H]34)[C@@H]21`, in series [1], the CC50 at 72 h was > 44.5 µM. In series [2], the pEC50 was < 5.00.

As to `O=C(NCCCCN1CCCC2=C[C@H]3C[C@H](CN4CCCC[C@H]34)[C@@H]21)c1ccc(O)cc1`, the CC50 at 72 h in series [1] is > 47.3 µM. In series [2], the pEC50 was 5.34.

As to `Cc1ccc(C(=O)NCCCCN2CCCC3=C[C@H]4C[C@H](CN5CCCC[C@H]45)[C@@H]32)cc1`, the CC50 at 72 h in series [1] was > 47.5 µM. Also, the pEC50 in series [2] is 5.30.

As to `O=C(NCCCCN1CCCC2=C[C@H]3C[C@H](CN4CCCC[C@H]34)[C@@H]21)c1ccc(OC(F)(F)F)cc1`, the CC50 at 72 h in series [1] amounted to 34.6 µM. Moreover, the pEC50 in series [2] is 5.95.

With `FC(F)(F)Oc1ccc(CNCCCCN2CCCC3=C[C@H]4C[C@H](CN5CCCC[C@H]45)[C@@H]32)cc1`, the CC50 at 72 h in series [1] stood at 6.2 µM. For the same compound, the pEC50 in series [2] was 5.38.

Consider `NCCCN1CCCC2=C[C@H]3C[C@H](CN4CCCC[C@H]34)[C@@H]21`, for which the CC50 at 72 h in series [1] was > 69.4 µM. For the same compound, the pEC50 in series [2] is < 5.00.

With `CN1CCCC2C[C@H]3C[C@H](CN4CCCC[C@H]34)[C@@H]21` (stereo partly drawn), in series [1], the CC50 at 72 h was > 80.6 µM. The pEC50 in series [2] is < 5.00.

For the compound `O=C(NCCCCCN1CCCC2=C[C@H]3C[C@H](CN4CCCC[C@H]34)[C@@H]21)c1ccc(OC(F)(F)F)cc1F`, in series [1], the CC50 at 72 h was > 38.2 µM. Besides, the pEC50 in series [2] is 5.21.

On to `O=C(NCCCCN1CCCC2=C[C@H]3C[C@H](CN4CCCC[C@H]34)[C@@H]21)c1ccccc1OC(F)(F)F`, for which, in series [1], the CC50 at 72 h is > 40.7 µM. Besides, the pEC50 in series [2] is < 5.00.

For `O=C(NCCN1CCCC2=C[C@H]3C[C@H](CN4CCCC[C@H]34)[C@@H]21)c1ccc(OC(F)(F)F)cc1`, the CC50 at 72 h in series [1] was > 43.2 µM. Moreover, the pEC50 in series [2] was < 5.00.

Take `O=C(/C=C/c1ccc(OC(F)(F)F)cc1)NCCCCN1CCCC2=C[C@H]3C[C@H](CN4CCCC[C@H]34)[C@@H]21`: the CC50 at 72 h in series [1] was found to be 9.02 µM. Also, the pEC50 in series [2] was 5.69.
